Measurements taken from patent publication EP0695187B1, “INHIBITION, CONTROL AND REGRESSION OF ANGIOGENESIS WITH HYALURONIC ACID OR HYALURONIC ACID AND NSAID” (JAGOTEC AG, priority 1993, dated 1994).
Several values for one entry are separate records, joined by “and”; a condition that tells them apart may be missing. Identical values can stand only once.

What was measured:
Format in all cases: in vivo, mice
[1] = test system: vasculature within the murine chronic granulomatous air pouch; experiment: murine chronic granulomatous air pouch, carmine vascular cast; dosing daily from induction for 6 days; conditions: for effect on the tissue vascularity: daily
Experimental: The Applicants chose a simple model of murine angiogenesis induced with a chronic granulomatous reaction to Freund's complete adjuvant in croton oil. The Applicants assessed this process using a modification of this method by the formation of an intravascular cast incorporating carmine red. Chronic granulomatous air pouches were induced by the sc injection of 3 ml air into anaesthetized mice (25-30 g, Tuck Original) and 0.5 ml Freund's complete adjuvant with 0.1% croton oil 24 hours later. The mice were dosed for 6 days and the vascular content assessed by the formation of a vascular cast. This was formed by the intravenous injection of 1 ml 25% carmine red in 10% gelatin at 40°C into warmed mice. This overcame any pharmacological or temperature-related alterations in peripheral vasomotor tone which may have invalidated the results. The carcasses were chilled and the granulomatous air pouch linings dissected. These were dried at 56°C, weighed, and papain digested. The dye was then be dissolved by the addition of 1 ml 0.05 M NaOH, and the samples were then centrifuged at 2500 g for 20 minutes. After these were filtered, the absorbances were read at 490 nm using a multiwell plate reader (Biotek). The results were then expressed as either µg dye/mg dry weight of tissue. […] On the seventh day after induction the vascularity of the tissue was assessed. […] The formation of a subcutaneous air pouch in the dorsum of mice allows the formation of a lining which responds to produce a chronic inflammatory lesion in response to various antigens, irritants and foreign bodies. It can also be used for the introduction of drugs and various other treatments into the site of inflammation and the collection of inflammatory exudate. […] For this experiment female mice (TO. 25-30g, 10 per group) were lightly anesthetized with hypnorm/hypnoval. Air pouches were formed by the subcutaneous injection of 3 ml of filter-sterilized air, into the dorsum of each mouse. After 24 hours, chronic inflammation was induced in the air pouch lining by the injection of 0.5 ml Freund's complete adjuvant (FCA) supplemented with 0.1% croton oil. Animals were dosed daily from the time o: injection of FCA/croton oil, for 6 Days. At which point the analysis was performed. […] Each mouse was then placed into a water jacketed incubation chamber at 37°C and injected i.v. with 1 ml of 15% carmine dye in 10% gelatin (in Hanks balanced salt solution) with syringe and solution prewarmed to 40°C. Cadavers were then chilled at 4°C for 4 hours. The granulomatous tissue was dissected free and dried in an oven at 56°C for 48 hours. The dried granuloma was weighed and then digested in 9 ml of papain solution (12-Units/ml in 0.05 M phosphate buffer, pH 7.0, supplemented with 0.33g/l N-acetyl cysteine), at 56°C for 48 hours. The digests were then made up to 10 ml with 5.0M NaOH and vortexed, to solubilise the dye and centrifuged. The digests were filtered through 0.2µm cellulose nitrate membranes and […] samples aliquoted into 96 well plates and analyzed for dye content by spectrophotometric analysis at […] using a microplate reader. Vascular volume was calculated as carmine content per mg dry mass of tissue.

[2] = test system: vasculature within the murine chronic granulomatous air pouch; experiment: further protocol: air pouch granuloma grown 7 days untreated, then topical daily treatment (regression); conditions: for VI: mean vascularity index; for Carmine / Dry wt. gran.: mean
Experimental: In another protocol, the use of the air pouch on the mice was once again employed. Only this time, after formation of the pouches and injection of .5 ml Freund's complete adjuvant (FCA) supplemented with 0.1% croton oil, the granuloma in the mice were permitted to grow for 7 days (they were left unhealed for 1 week). […] The granulomatous tissue was dissected and treated as previously described. The weight of the granuloma (including the carmine red dye) and weight of the carmine red dye (which displaced the blood) were determined for each mouse sacrificed at each stage (after 7, 14 and 21 days). The vascularity index (VI) was calculated and the mean vascularity index was calculated for each group as follows: Vascularity Index (VI) =(weight of carmine red dye in GRANULOMA)/(Weight of GRANULOMA (including carmine red dye)) [formula]

[3] = test system: vasculature within the murine chronic granulomatous air pouch; experiment: murine chronic granulomatous air pouch, carmine vascular cast; dosing daily from induction for 6 days; conditions: Topical, n = 8 (Table Three summary)
[4] = i-pouch, n = 10 (Table Three summary)
[5] = intra-pouch injection, daily 6 days, group mean, N = 10
[6] = 2 week (one week of topical application)
[7] = 3 week (two weeks of topical application)

O=C(O)Cc1ccccc1Nc1c(Cl)cccc1Cl [diclofenac (diclo), Diclofenac]
Carmine dye (ug) Mean [1, 4]: 92.6 µg | ug.dye/mg.gramuloma Mean [1, 4]: 0.7363 ug.dye/mg.gramuloma | effect on the tissue vascularity ([1]; intra-lesional injection, assessed on seventh day (Figure 1(b))): no significant effect | Absorbness / Absorbous ([1]; intra-pouch injection, daily 6 days, absorbance at 490 nm of digest, individual animals, listed as Saline + diclo): 0.773 and 0.242 and 0.730 and 0.400 and 0.409 and 0.262 and 0.402 and 0.468 | ug dye mg ([1]; intra-pouch injection, daily 6 days, carmine per mg dry tissue, individual animals, listed as Saline + diclo): 1.194 ug dye mg and 0.320 ug dye mg and 1.577 ug dye mg and 1.050 ug dye mg and 0.674 ug dye mg and 0.442 ug dye mg and 0.526 ug dye mg and 0.471 ug dye mg and 0.586 ug dye mg and 0.520 ug dye mg | Dry wt ([1]; intra-pouch injection, daily 6 days, dried granuloma, individual animals, listed as Saline + diclo): 158 mg and 99 mg (2×) and 124 mg and 162 mg and 170 mg and 122 mg | ug carmine [1, 5]: 92.75 µg | ug dye mg [1, 5]: 0.7363 ug dye mg | ug carmine ([1]; intra-pouch injection, daily 6 days, individual animals, listed as Saline + diclo): 166 µg and 50.5 µg and 156 µg and 104 µg and 86.7 µg and 54.8 µg and 85.2 µg and 63.7 µg and 99.5 µg and 61.3 µg | effect on the tissue vascularity ([1]; topical, assessed on seventh day (Figure 1(a))): no significant effect | VI ([2]; 2 week (one week of topical application), listed as Diclo Alone): 1.3 µg/mg | VI ([2]; 2 week (one week of topical application), listed as aq. cream/Diclo): 1.300 µg/mg | Carmine [2, 6]: 108.63 µg | Dry wt. gran. [2, 6]: 84.41 mg | Carmine [2, 7]: 150.07 µg | Dry wt. gran. [2, 7]: 112.19 mg | Carmine dye (ug) Mean [3]: 187.3 µg | Granuloma dry wt.(mg) Mean [3]: 166.3 mg | ug.dye/mg.gramuloma Mean [3]: 1.216 ug.dye/mg.gramuloma
